Results as given in US20160130293A1, “NOVEL COMPOUND DERIVED FROM PLANT OF GENUS QUAMOCLIT AND COMPOSITION CONTAINING SAME AS ACTIVE INGREDIENT FOR PREVENTING OR TREATING DIABETES” (KOREA RESEARCH INSTITUTE BIOSCIENCE, priority 2013, published 2016).

Experiments:
[1] = tested on: diabetic mice (Male C57BL/Ks DB/DB mouse); test: Glycated hemoglobin (HbA1c) in diabetic mice after 4 weeks, ELISA kit; assay type: in vivo; conditions: 1 mg/kg oral daily for 4 weeks
Experimental: (§1) 6-week-old mice (Male C57BL/6J mouse, 20 g, Central Lab. Animal Inc., Seoul) and 6-week-old diabetic mice (Male C57BL/Ks DB/DB mouse, 20 g, Central Lab. Animal Inc., Seoul) were purchased and acclimated under constant temperature (25° C.) and humidity (50%) for 1 week and used for the experiment.
(§2) Mice were classified into a normal mouse control group, a diabetic mouse control group, a diabetic mouse group treated with drug (glimepiride), a diabetic mouse group treated with the Quamoclit angulata-derived novel compound (KRIBB-BH-P, 1 mg/kg), and a diabetic mouse group treated with the Quamoclit angulata-derived novel compound (KRIBB-BH-SFP, 1 mg/kg), each group consisting of five mice. The treated mice were orally administered with the drug and compounds daily for 4 weeks. The change in blood glucose in mice of each group was measured every week, and after 4 weeks, blood was collected from each mouse to measure the concentration of glycated hemoglobin.
In order to reduce the complications developed in diabetic patients under treatment, it is important to maintain the level of blood glucose at an appropriate level. Since the levels of blood glucose measured at a certain time may be changed by various factors, the test of glycated hemoglobin (HbAlc) is most widely used for the purpose of determining the long-term change in blood glucose control. […]
In order to determine the effect of the Quamoclit angulata-derived novel compound on the glycated hemoglobin, blood was collected from each mouse in the normal mouse control group, the diabetic mouse control group, the diabetic mouse group treated with the Quamoclit angulata-derived novel compound (KRIBB-BH-P, 1 mg/kg), and the diabetic mouse group treated with the Quamoclit angulata-derived novel compound (KRIBB-BH-SFP, 1 mg/kg), in which the treated mice were orally administered with the compounds daily for 4 weeks, and the levels of glycated hemoglobin were measured using an ELISA kit (Cusabio biotech, Japan).

[2] = tested on: mice fed with high-fat diet (Male C57BL/6J); test: Fasting blood glucose test in high-fat diet mice after 2 weeks of treatment; assay type: in vivo, mouse; conditions: 1 mg/kg oral daily for 2 weeks, fasted 16 hours, FIG. 6
Experimental: 5-week-old mouse (Male C57BL/6J, 19 g, Koatech, Pyeongtaek, Korea) was purchased and acclimated under constant temperature (25° C.) and humidity (50%) for 1 week and used for the experiment. Mice were classified into a group fed with normal diet and a group fed with high-fat diet and the mice were fed for 2 weeks, each group consisting of five mice.
At 2 weeks after feeding with high-fat diet, the experimental mice were classified into a normal mouse control group, a diabetic mouse control group, a diabetic mouse group treated with drug (glimepiride), a diabetic mouse group treated with the Quamoclit angulata-derived novel compound (KRIBB-BH-P, 1 mg/kg), and a diabetic mouse group treated with the Quamoclit angulata-derived novel compound (KRIBB-BH-SFP, 1 mg/kg), and the treated mice were orally administered with the drug and compounds daily for 2 weeks. Then, the mice were fasted for 16 hours, and the level of blood glucose was measured.

Min6 cell line = test: Stimulation of insulin secretion in mouse pancreatic beta-cell line (Insulin ELISA); assay type: cell-based; conditions: 25 mM glucose, 0.5 ng/ml, 2 hours, vs 25 mM glucose negative control, FIG. 3
Experimental: The effect of the novel compound KRIBB-BH-SFP isolated from Quamoclit angulata on the stimulation of insulin secretion was determined in a mouse pancreatic beta-cell line, Min6 cell line.
Min6 cells (ATCC, USA) were cultured in HDMEM supplemented with 15% fetal bovine serum. To induce the expression of insulin in the Min6 cell line, the cells were plated on a 96 well plate at a density of 1×10^4 cell/plate and cultured in […] DMEM (high glucose) supplemented with 15% FBS for 72 hours. Then, the cells were washed with PBS buffer solution and cultured in HBSS buffer solution for 2 hours, and then, the buffer solution was replaced with HBSS buffer solution supplemented with 25 mM glucose. Then, the novel compound […] was added to a final concentration of 0.5 ng/ml, and the cells were cultured for 2 hours to determine the stimulation of insulin expression. Meanwhile, for use as a control, cells were treated with 5.5 mM glucose such that the insulin was not expressed. For use as a negative control, cells were treated with 25 mM glucose, and the level of insulin expression in these cells was compared to determine the effect of the novel compound (KRIBB-BH-SFP) derived from Quamoclit angulata on the stimulation of insulin expression. […]

[3] = tested on: diabetic mice (Male C57BL/Ks DB/DB mouse); test: Blood glucose in diabetic mice treated orally for 4 weeks; assay type: in vivo; conditions: 1 mg/kg oral daily for 4 weeks, vs diabetic mouse control group, FIG. 4
Experimental: Normal mice and diabetic mice were treated with the Quamoclit-derived novel compound to determine the changes in diabetes indicators such as blood glucose and glycated hemoglobin.
as §1, §2

SMILES | HbA1c [1] [%] | level of glycated hemoglobin ([1]; in words) | level of blood glucose (fasting) [2] | level of insulin expression (insulin secreted from Min6 cells) (Min6 cell line) | level of blood glucose [3]
CCCCCC(CCCC(O)CC(=O)O)OC1OC(C)C(O)C(O)C1O (stereo not drawn) [KRIBB-BH-SFP] | 6.51 ± 0.46 | significantly reduced | significantly reduced | increased | significantly reduced
CCCCCC(CCCC(O)CC(=O)O)OC1OC(COC2OC(C)C(OC3CC(O)C(O)C(C)O3)CC2O)C(O)C(O)C1OC1CC(O)C(OC2CC(O)C(OC3CC(O)C(OC)C(C)O3)C(C)O2)C(C)O1 (stereo not drawn) [KRIBB-BH-P] | 6.63 ± 0.70 | – | significantly reduced | – | significantly reduced
CCCCCC(O)CCCC(O)CC(=O)O (stereo not drawn) [KRIBB-BH-SC] | – | – | – | increased | –
